Data from PMC12083526, “Capturing structural intermediates in an animal-like cryptochrome photoreceptor by time-resolved crystallography” (Science Advances, 2025).

Experiments:
[1] = target: T1, CraCRYΔCTE (CraCRY; animal-like cryptochrome, aCRY) (Chlamydomonas reinhardtii, UniProt A8J8W0); experiment: serial femtosecond crystallography (room temperature); details: crystals reduced with 50 mM DTT and white light, anaerobic; FAD-binding site
T1 construct: gene CHLRE_06g278251v5; C-terminal extension E496-E595 replaced by a His tag; pET28a-based; E. coli BL21(DE3); PHR domain plus helix α22
T1 sequence (A8J8W0 entry or part of it, stated change not applied): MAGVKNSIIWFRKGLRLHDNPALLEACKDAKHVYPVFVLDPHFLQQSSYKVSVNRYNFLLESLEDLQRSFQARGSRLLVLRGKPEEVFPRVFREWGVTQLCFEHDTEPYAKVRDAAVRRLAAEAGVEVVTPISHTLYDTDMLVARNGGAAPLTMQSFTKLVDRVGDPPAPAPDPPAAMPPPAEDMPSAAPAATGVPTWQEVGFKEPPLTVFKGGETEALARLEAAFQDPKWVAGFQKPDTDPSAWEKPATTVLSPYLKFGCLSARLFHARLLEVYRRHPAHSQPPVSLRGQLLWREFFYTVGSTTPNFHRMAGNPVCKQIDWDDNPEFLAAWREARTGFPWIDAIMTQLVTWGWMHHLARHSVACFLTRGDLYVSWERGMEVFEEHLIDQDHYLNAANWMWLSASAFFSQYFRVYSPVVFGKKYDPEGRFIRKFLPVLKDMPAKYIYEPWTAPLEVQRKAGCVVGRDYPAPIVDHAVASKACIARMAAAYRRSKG

[2] = target: T2, CraCRYΔCTE (CraCRY; animal-like cryptochrome, aCRY) (Chlamydomonas reinhardtii, UniProt A8J8W0, E384Q); experiment: steady-state photoreduction, UV/Vis absorption; format: binding; details: white light on ice, aerobic, no external reductant; 20 mM phosphate, 500 mM NaCl, 10% glycerol, pH 5.5-8.5
T2 construct: gene CHLRE_06g278251v5; C-terminal extension E496-E595 replaced by a His tag; pET28a-based; E. coli BL21(DE3); PHR domain plus helix α22
T2 sequence (A8J8W0 entry or part of it E384Q): as the sequence (A8J8W0 entry or part of it, stated change not applied) above, with E384Q counted along it

SMILES	serial femtosecond crystallography (room temperature) [1]	steady-state photoreduction, UV/Vis absorption [2]
Cc1cc2c(cc1C)N(C[C@H](O)[C@H](O)[C@H](O)COP(=O)(O)OP(=O)(O)OC[C@H]1O[C@@H](n3cnc4c(N)ncnc43)[C@H](O)[C@@H]1O)c1[nH]c(=O)[nH]c(=O)c1N2 [FADH^−]	CraCRY structures in FADox and FADH^− states at room temperature are almost identical	
Cc1cc2nc3c(=O)[nH]c(=O)nc-3n(C[C@H](O)[C@H](O)[C@H](O)COP(=O)(O)OP(=O)(O)OC[C@H]3O[C@@H](n4cnc5c(N)ncnc54)[C@H](O)[C@@H]3O)c2cc1C [FADox, flavin adenine dinucleotide]		E384Q is inefficient to generate the neutral radical FADH^• at physiological pH
